Results from patent publication EP4786454A1, “HETEROARYL DERIVATIVE AND USE THEREOF” (priority 2023, dated 2025).

How the values were obtained:
[1] = Plasma protein binding rate, equilibrium dialysis (mouse plasma); format: in vitro ADME, CD-1 mice; conditions: m (CD-1 mouse plasma), dialysis 4 hours at 37 °C, read-out: Unbound PPB%
Protocol: The protein binding rates of the compounds in the plasma of CD-1 mice, Sprague-Dawley rats, beagle dogs, cynomolgus monkeys, and human were determined using equilibrium dialysis method.
Commercially available plasma, dual-layer dialysis membrane, and equilibrium dialysis device.
The dual-layer dialysis membrane was soaked in ultrapure water for about 1 hour, removed and then divided into two parts. It was then soaked in an ethanol:water (20:80, v:v) solution for 20 minutes or placed at 2 to 8 °C, and it was valid for 1 month. Before starting the assay, the dialysis membrane was rinsed twice with ultrapure water and then soaked in ultrapure water for another 20 minutes for later use.
On the day of assay, the frozen plasma of CD-1 mice, Sprague-Dawley rats, beagle dogs, cynomolgus monkeys, and human was thawed in running cold tap water. After the plasma was completely thawed, the plasma was centrifuged at 3220×g for 5 minutes, and the suspended substances and precipitates in it were removed. The pH of the plasma was determined. The plasma with a pH in the range of 7.4 ± 0.1 was directly used, or the plasma with a pH in the range of 7.4 ± 0.1 after an adjustment with 1% phosphoric acid or 1M sodium hydroxide was used.
Preparation process of plasma samples: 597 µL of blank plasma from each of the above five species was taken, respectively. 3 µL of a compound or warfarin working solution was added, and the mixture was mixed thoroughly to give a plasma sample with a compound concentration of 2 µM and a warfarin concentration of 2 µM (n=1). The concentration of the organic phase DMSO was 0.5%. The sample was thoroughly mixed before proceeding to the next step.
Preparation process of T0 samples: 50 µL of a plasma sample containing the compound and warfarin was transferred to a sample receiving plate (n=3), and 50 µL of blank PBS was immediately added. Then, 500 µL of stop solution was added to the T0 sample of the compound and warfarin, and the mixture was stored at 2 to 8 °C, waiting to be processed later together with other dialysis-processed samples.
Dialysis process of plasma samples: 100 µL of a compound (2 µM) and warfarin (2 µM) plasma sample was added to the donor of each dialysis well (n=3), and 100 µL of blank PBS was added to the corresponding receiver of the dialysis well. The dialysis plate was placed in a 5% CO2 incubator, and incubated at 37 °C with shaking at approximately 100 rpm for 4 hours.
After the dialysis was completed, 50 µL of dialysis-processed PBS sample and dialysis-processed plasma sample (n=3) were transferred to a new 96-well plate (sample receiving plate). The corresponding volume of the corresponding blank plasma or PBS was added to the sample to make the final volume of each sample well 100 µL, with a plasma to PBS volume ratio of 1:1. All the samples were analyzed by LC-MS/MS after protein precipitation.
The formulas for calculating the unbound fraction (%Unbound), bound fraction (%Bound) and recovery fraction (%Recovery) of a compound are as follows: %Unbound = 100 ×F / T %Bound = 100 - %Unbound %Recovery = 100 ×(F + T)/ T0 wherein F is the concentration of the compound at the receiver of dialysis; T is the concentration of the compound at the supply end of dialysis; and T0 is the concentration of the compound in the plasma at time zero.

[2] = Kinetic solubility in 50 mM phosphate buffer, LC-UV; format: physicochemical; conditions: room temperature, 24 hours
Protocol: The purpose of this assay was to determine the kinetic solubility of the compounds after incubation at room temperature in a 50 mM phosphate buffer solution with a pH of 2.0, 6.5, and 7.4 for 24 hours using a direct ultraviolet method.
10 µL of DMSO stock solutions of a test compound and control compound were added to a 96-well plate. 490 µL of the test medium was added to the 96-well plate, respectively. The plate was sealed, and vortexed for 2 minutes. The incubation concentration of a sample was 200 µM, wherein, DMSO accounted for 2%. The 96-well plate was placed on a shaker, and incubated at room temperature and 800 rpm for 24 hours to reach dissolution equilibrium. After the incubation, the sample was put into a centrifuge, and centrifuged at 25 °C and 4000 rpm for 10 minutes. The supernatant from the centrifuged sample was transferred to a filter plate, centrifuged at 4000 rpm for 5 minutes, and filtered to give filtrate. The concentration of the filtrate was analyzed using linear quantitative analysis with LC-UV (the sample was diluted as needed).
Data of the assay were acquired and processed using Empower software. Linear regression analysis was performed by plotting the relationship between the peak area and their concentrations in µM.

SMILES | fraction unbound at 4 h, 2 µM [1] | KSY ([2]; pH 2.0, 50 mM phosphate buffer) [µg/mL] | KSY ([2]; pH 6.5, 50 mM phosphate buffer) [µg/mL] | KSY ([2]; pH 7.4, 50 mM phosphate buffer) [µg/mL]
CC(C)(C)CC(=O)Nc1nc2c(F)cc(C#N)cn2c1C1=CCCC1 [Compound 3] | 0.087 | 3.78 | 3.68 | 4.43
CC(C)(C)CC(=O)Nc1nc2c(F)cc(C#N)cn2c1-c1ccc(OC(F)(F)F)cc1 [Compound 1] | 0.047 | – | – | –
CC(C)(C)CC(=O)Nc1nc2c(F)cc(C#N)cn2c1C12CC(C1)C2 [Compound 5] | 0.141 | 4.46 | 4.57 | 4.79
CC(C)(C)CC(=O)Nc1nc2c(C(F)(F)F)cc(C#N)cn2c1C12CC(C1)C2 [Compound 6] | – | 21.7 | 20.9 | 21.4
